Test results taken from patent US4472428A, “Halogenated prostacyclins pharmaceutical use thereof and hydroxy intermediates therefore” (Teijin Limited, priority 1980, dated 1984).
≈ marks a conversion by molar mass, not a printed value. Structures can show the parent of a compound that is named as a salt. Where two headings read alike, the source gives them in different places.

Experiments:
platelet aggregation [1] = test: in vitro inhibitory activity of platelet aggregation (ADP-induced, rabbit PRP); format: cell-based, rabbit (Japanese domestic white male); details: for platelet aggregation inhibiting activity (in words): general statement; for IC50: Oryctolagus cuniculus, Platelet, rabbit PRP, 10 μM ADP, 37° C., read-out: IC50 (minimum concentration which inhibited more than 50% of platelet aggregation)
Description: (1) in vitro inhibitory activity of platelet aggregation:
The in vitro platelet aggregation inhibiting activities of the compounds of the invention were examined by using rabbits. Blood was withdrawn from the ear vein of Japanese domestic white male rabbits weighing 2.5 to 3.5 kg. A mixture of a 3.8% trisodium citrate solution and the blood in a ratio of 1:9 was centrifuged at a speed of 1000 rpm for 10 minutes. The upper layer was separated as platelet-rich plasma (PRP). The lower layer was further centrifuged at a speed of 2800 rpm for 10 minutes. The upper layer was separated as platelet-poor plasma (PPP). The number of platelets was adjusted to 6×10^5 /μl to 7×10^5 /μl by diluting the PRP with PPP. 25 microliters of the test compounds prepared as shown below was added in an amount of 25 to 250 microliters of PRP after the adjustment, and the mixture was pre-incubated at 37° C. for 2 minutes, and then 10 μM (final) of ADP was added. By using an aggregometer, changes in transmission were recorded.
The drug was dissolved in ethanol to a concentration of 10 mg/ml. When its activity was measured, it was used after being diluted with phosphate buffer (pH 7.4). Furthermore, after dilution with the buffer, the drug was left to stand at 0° C. for 4 hours, and the activity of the drug was similarly measured.
The rate of inhibition of platelet aggregation was determined from the following equation.
Inhibition rate (%)=(1-T/To)×100
To : the transmittance of the system containing the phosphate buffer,
T: the transmittance of the system to which the test drug was added.
The minimum concentration of the drug which inhibited more than 50% of platelet aggregation was shown as an IC50 value.

blood pressure [2] = test: hypotensive activity, intravenous injection in anesthetized rats; format: in vivo, rats (male wister); details: for blood pressure lowering activity (in words): general statement; for ED20: Rattus norvegicus, iv, anesthetized rats, read-out: P-ED20 (dosage causing a 20% lowering of the mean blood pressure)
Description: (§1) Measurement of the hypotensive activity:
(§2) The actions of the prostacyclin derivatives of the invention on the blood pressure and heart rate of rats were examined by intravenous injection under anesthesia.
(§3) Male wister rats weighing about 250 g were used. Urethane (500 mg/kg) and α-chloralose (100 mg/kg) were intraperitoneally administered to the rats. The rats were anesthetized and fixed in place.
(§4) Each of the test compounds was dissolved in a small amount of ethanol and diluted with 0.05M Tris buffer saline (pH 9) to adjust the final ethanol concentration to not more than 5%. The solution was intravenously injected into the rats through a catheter inserted into the femoral vein.
(§5) The blood pressure of the rats was measured by a pressure transducer through a catheter inserted into the carotid artery of the rats. The heart rate was determined from the blood pressure pulse.
(§6) The action of the test compound on the blood pressure was expressed as the dosage (P-ED20, μg/kg) of the test compound which caused a 20% lowering of the mean blood pressure before administration of the compound. The action of the test compound on the heart rate was expressed as the dosage (H-ED10, μg/kg) of the test compound which caused a 10% increase of the heart rate from the heart rate before administration of the test compound.

[3] = chemical stability at pH 7.4 (half period from UV absorption at 210 nm); format: physicochemical; details: pH 7.4 phosphate buffer, room temperature, UV 210 nm
Description: Test for the chemical stability of (5E)-5-chloro-PGI2 sodium salt (No. 686) and (5Z)-5-chloro-PGI2 sodium salt (No. 5Z-686):
6.54 ml of 0.02M potassium dihydrogen phosphate and 29.0 ml of 0.01M disodium hydrogen phosphate were mixed, and the pH of the mixture was measured by a pH meter.
The solution of (5E)-5-chloro-PGI2 sodium salt obtained in Example 35 and the solution of (5Z)-5-chloro-PGI2 sodium salt obtained in Example 36 were each added to the above buffer mixture, and their UV spectra were periodically recorded at room temperature. From the absorption values at 210 nm, the half periods of these salts were determined.

heart rate = test: action on heart rate, intravenous injection in anesthetized rats; format: in vivo, rats (male wister); details: Rattus norvegicus, i.v., read-out: H-ED10 (dosage causing a 10% increase of the heart rate)
Description: as §1, §2, §3, §4, §5, §6

Lewis lung carcinoma = test: activity of inhibiting metastasis of a malignant tumor; format: in vivo, mice
Description: Measurement of the activity of inhibiting metastasis of a malignant tumor:
Mice were used as experimental animals. Lewis lung carcinoma (4×10^5 cells/100 μl) was transplanted into the foot pad of each mouse. For seven days from the 5th to the 11th day after the transplantation, the compound No. 686 of the invention was intraperitoneally administered to the mouse once a day. On the 12th day, the foot at the primary nest was cut off, and the weight of the cut foot (primary nest portion) was measured. On the 20th day after the transplantation, the number of nests which metastasized to the lungs was measured.

[4] = system: blood pressure / platelet aggregation; test: ratio of the blood pressure lowering activity and the platelet aggregation inhibiting activity; design: species or system rats (blood pressure); rabbits (platelets); details: for P-ED20 / platelet IC50: P-ED20 rats i.v., IC50 rabbit platelets in vitro; for selectivity of pharmacological activity (in words): compared with PGI2
Description: (2) From the results obtained in Examples 100 and 101, the ratio of the blood pressure lowering activity and the platelet aggregation inhibiting activity was calculated. The result is shown in Table 3 together with the ratio obtained with PGI2.

platelet aggregation [5] = test: extra vivo inhibitory activity of platelet aggregation after intraduodenal administration; format: in vivo, SD strain rats; details: for inhibition (%) (rate of platelet aggregation inhibition): 3 mg/kg i.d., blood drawn 30 min after administration, ADP, N 4
Description: extra vivo inhibitory activity of platelet aggregation:
The extra vivo platelet aggregation inhibitory activity of the prostacyclin derivatives of the invention were measured by using […]. The test compound of the invention in ethanol was diluted with 0.05M Tris buffer (pH 9.0) and as a control, only the 0.05M Tris buffer solution was used. These solutions were each intraduodenally administered in a dose of 1 ml/kg to SD strain rats weighing about 200 g which had been fasted for 16 hours. Thirty minutes after the administration, blood was drawn off from the aorta using trisodium citrate so that the ratio of the blood to 3.8% trisodium citrate was 9:1. The blood was centrifuged at a speed of 800 rpm for 10 minutes. The upper layer was separated as platelet-rich plasma (PRP). The lower layer was further centrifuged at a speed of 2800 rpm for 10 minutes. The upper layer was separated as platelet poor plasma (PPP). 250 microliters of the resulting PRP was taken into an aggregometer cuvette, and incubated at 37° C. for 2 minutes. Then, 25 microliters of a 1.25 μM ADP disodium solution adjusted by dissolving with 0.1M tris-HCl buffer (pH 8.0) was added. The aggregation curve was recorded for 3 minutes. The maximum degree of aggregation of platelets within this time period was read, and the rate of inhibition of platelet aggregation was calculated from the following equation.
Rate of platelet aggregation inhibition (%)=(1-(TD /TC)×100
TC : the transmittance of the control glroup (to which only the 0.05M Tris buffer solution was administered),
TD : the transmittance of the drug administered group.

blood pressure [6] = test: action on blood pressure, intraduodenal administration to conscious rats; format: in vivo, rats (male SD); details: for mean blood pressure: N 4
Description: The prostocyclin derivatives of the invention were intraduodenally administered to conscious rats, and their action on the blood pressure was examined.
Male SD rats weighing about 200 g were used as experimental animals. These rats had been fasted for 16 hours before the start of the experiment. A catheter was inserted into the femoral artery of the rats under ether anesthesia, and then the rats were restrained within a Bollman cage. After more than 1 hour from awakening, each of the test compounds was intraduodenally administered.
The test compound was dissolved in a small amount of ethanol, and then diluted with 0.05M Tris buffer (pH 9) to adjust the final concentration of ethanol to not more than 5%. The mean blood pressure was measured by meaans of a pressure transducer through the catheter inserted into the femoral artery.

[7] = 4 hr standing at 0° C. after dilution with phosphate buffer pH 7.4
[8] = 10 μg/kg/day i.p., day 5 to 11, 5 animals

5-Chloro-PGI2 [Compound 500]
platelet aggregation inhibiting activity (in words) (platelet aggregation [1]): high platelet aggregation inhibiting activity
blood pressure lowering activity (in words) (blood pressure [2]): low blood pressure lowering activity

CCCCCC(O)C=CC1C(O)CC2OC(=C(Cl)CCCC(=O)O)CC21 (stereo not drawn) [Compound 5Z-686, (5Z)-5-chloro-PGI2, sodium salt]
half period [3]: more than 1 month

CCCCCC(O)C=CC1C(O)CC2OC(=CCCCC(=O)O)C(F)C21 (stereo not drawn) [Compound 501, 7-Fluoro-PGI2]
platelet aggregation inhibiting activity (in words) (platelet aggregation [1]): high platelet aggregation inhibiting activity
blood pressure lowering activity (in words) (blood pressure [2]): low blood pressure lowering activity

CCCCCC(O)C=CC1C(O)CC2OC(=C(Cl)CCCC(=O)OC)CC21 (stereo not drawn) [Compound 636, (5E)-5-chloro-PGI2 methyl ester]
IC50 (platelet aggregation [1]; 0 hr): 0.62 µg/mL (≈ 1.55 µM)
IC50 (platelet aggregation [1]; [7]): 0.51 µg/mL (≈ 1.27 µM)

CCCCCC(O)C=CC1C(O)CC2OC(=CCCCC(=O)OC)C(F)C21 (stereo not drawn) [Compound 637, 7-fluoro-PGI2 methyl ester]
IC50 (platelet aggregation [1]; 0 hr): 0.34 µg/mL (≈ 0.884 µM)
IC50 (platelet aggregation [1]; [7]): 0.38 µg/mL (≈ 0.988 µM)

CCCCCC(O)C=CC1C(O)CC2OC(=C(Cl)CCCC(=O)O)CC21 (stereo not drawn) [Compound 686, (5E)-5-chloro-PGI2, sodium salt]
ED10 (heart rate): > 10 µg/kg
Number of nests which metastasized to the lungs (measured on the 20th day) (Lewis lung carcinoma; [8]): 25.6 ± 12.0
Weight of the primary next portion measured on the 12th day (Lewis lung carcinoma; [8]): 2.17 ± 0.86 g
metastasis of the primary nest to the lungs (in words) (Lewis lung carcinoma; Table 6): inhibited metastasis of the primary nest to the lungs
primary nest (in words) (Lewis lung carcinoma; Table 6): reduced the primary nest
IC50 (platelet aggregation [1]; 0 hr): 0.14 µg/mL
IC50 (platelet aggregation [1]; [7]): 0.12 µg/mL
half-life [3]: ~22 days
P-ED20 / platelet IC50 [4]: 17.1
selectivity of pharmacological activity (in words) [4]: higher selectivity of pharmacological activity than PGI2
ED20 (blood pressure [2]): 2.4 µg/kg

CCCCCC(O)C=CC1C(O)CC2OC(=CCCCC(=O)O)C(F)C21 (stereo not drawn) [Compound 688, sodium salt of 7-fluoro-PGI2]
ED10 (heart rate): 1.9 µg/kg
inhibition (%) (rate of platelet aggregation inhibition) (platelet aggregation [5]): 87.5 ± 5.8%
platelet aggregation inhibiting activity (in words) (platelet aggregation [5]; Table 5, 3 mg/kg i.d., rats): stronger platelet aggregating activity than the sodium salt of PGI2
IC50 (platelet aggregation [1]; 0 hr): 0.05 µg/mL
IC50 (platelet aggregation [1]; [7]): 0.05 µg/mL
mean blood pressure (blood pressure [6]; 1 mg/kg i.d., 0 min): 102 ± 4
mean blood pressure (blood pressure [6]; 1 mg/kg i.d., 5 min): 101 ± 4
mean blood pressure (blood pressure [6]; 1 mg/kg i.d., 10 min): 97 ± 3
mean blood pressure (blood pressure [6]; 1 mg/kg i.d., 15 min): 99 ± 4
mean blood pressure (blood pressure [6]; 1 mg/kg i.d., 30 min): 104 ± 3
mean blood pressure (blood pressure [6]; 1 mg/kg i.d., 60 min): 100 ± 4
mean blood pressure (blood pressure [6]; 1 mg/kg i.d., 120 min): 100 ± 2
mean blood pressure (blood pressure [6]; 3 mg/kg i.d., 0 min): 104 ± 2
mean blood pressure (blood pressure [6]; 3 mg/kg i.d., 5 min): 100 ± 3
mean blood pressure (blood pressure [6]; 3 mg/kg i.d., 10 min): 100 ± 3
mean blood pressure (blood pressure [6]; 3 mg/kg i.d., 15 min): 103 ± 2
mean blood pressure (blood pressure [6]; 3 mg/kg i.d., 30 min): 102 ± 3
mean blood pressure (blood pressure [6]; 3 mg/kg i.d., 60 min): 102 ± 2
mean blood pressure (blood pressure [6]; 3 mg/kg i.d., 120 min): 100 ± 2
P-ED20 / platelet IC50 [4]: 14.0
selectivity of pharmacological activity (in words) [4]: higher selectivity of pharmacological activity than PGI2
ED20 (blood pressure [2]): 0.7 µg/kg

CCCCCC(O)C=CC1C(O)CC2OC(=CCCCC(=O)O)CC21 (stereo not drawn) [Sodium salt of PGI2, reference compound]
inhibition (%) (rate of platelet aggregation inhibition) (platelet aggregation [5]): 56.5 ± 11.3%
mean blood pressure (blood pressure [6]; 3 mg/kg i.d., 0 min): 109 ± 1
mean blood pressure (blood pressure [6]; 3 mg/kg i.d., 5 min): 84 ± 3
mean blood pressure (blood pressure [6]; 3 mg/kg i.d., 10 min): 101 ± 4
mean blood pressure (blood pressure [6]; 3 mg/kg i.d., 15 min): 110 ± 2
mean blood pressure (blood pressure [6]; 3 mg/kg i.d., 30 min): 109 ± 1
mean blood pressure (blood pressure [6]; 3 mg/kg i.d., 60 min): 107 ± 2
mean blood pressure (blood pressure [6]; 3 mg/kg i.d., 120 min): 103 ± 2
blood pressure lowering activity (in words) (blood pressure [6]; Table 4, i.d., conscious rats): stronger blood pressure lowering activity than the compound No. 688 of the present invention (especially five minutes later)
